From patent US10001485B2, “Methods for sensitizing a quiescent cancer stem cell to a BCR-ABL inhibitor” (The Regents of the University of California, priority 2011, dated 2018)

Experiments:
[1] = tested on: BC LSC (human BC CML CD34+CD38+ progenitors); assay: BC LSC engraftment in vivo (FACS) in mice transplanted with human BC CML CD34+ cells; design: species or system RAG2−/−γc−/− mice; conditions: for Mean (SEM) engraftment of CD34+CD38+ cells, Blood / Mean (SEM) engraftment of CD34+CD38+ cells, Marrow / Mean (SEM) engraftment of CD34+CD38+ cells, Spleen: 2 weeks; for effect on marrow LSC engraftment compared to vehicle treated controls: lower doses: sabutoclax 1.25 mg/kg, dasatinib 25 mg/kg
Excerpt: (§1) Immunocompromised RAG2^−/−yc^−/− mice were bred and maintained in the University of California San Diego Moores Cancer Center vivarium. Neonatal mice were transplanted intrahepatically with 50,000-200,000 CD34^+ cells according to our previously published methods (see Jaiswal, S. et al. cited above and Jamieson, C. H., et al. cited above). Transplanted mice were screened for tumor formation or human engraftment in peripheral blood by FACS at 6-8 weeks post-transplant. Upon detection of tumors, peripheral blood engraftment, or at 8-12 weeks post-transplant engrafted mice were treated for 2 weeks with dasatinib (daily, 50 mg/kg/day in 50% PEG, 50% PBS by oral gavage), sabutoclax (3 days per week, 5 mg/kg/day in 10% EtOH, 10% Cremaphor EL (Sigma Aldrich) 80% PBS by IP injection), or drug vehicles. Twenty-four hours post-treatment (10-14 weeks post-transplant), mice were euthanized and single cell suspensions of hematopoietic tissues were analyzed for human engraftment by FACS as described previously (see Jaiswal, S. et al. and Jamieson, C. H., et al. cited above). For in vivo combination studies, dasatinib was used at 25 or 50 mg/kg while sabutclax was used at 1.25 or 2.5 mg/kg with the same dosing regimen described above. For serial transplantation, a mix of whole mouse bone marrows was made from mice in the same treatment group. Total bone marrow cells were then counted by using Guava ViaCount Reagent and analysis on a Guava PCA system (Millipore), and transplanted in equal numbers into secondary neonatal recipients by intrahepatic injection. 250,000 whole bone marrow cells per mouse were injected.

BC LSC = assay: Serial transplantation of treated bone marrow into secondary recipients, survival; assay type: in vivo, RAG2−/−γc−/− mice
Excerpt: as §1

BC LSC-engrafted marrow = assay: TUNEL apoptosis analysis of engrafted bone marrow; assay type: in vivo, RAG2−/−γc−/− mice; conditions: following sabutoclax treatment
Excerpt: For apoptosis analysis, bone marrows are stained using the ApopTag fluorescein in situ TUNEL apoptosis detection kit (Chemicon, #S7110) following the manufacturer's protocol. Sections are mounted as above. Images are acquired using an Applied Imaging Ariol SL-50 automated scanning microscope and image analysis system.

marrow-engrafted BC LSC = assay: FACS cell cycle analysis (Ki-67/7-AAD) of bone marrow engrafted BC CML cells; assay type: in vivo, RAG2−/−γc−/− mice; conditions: FIG. 7
Excerpt: Single cell suspensions of bone marrow cells from mice treated with sabutoclax or vehicle were immunostained with Alexa405-conjugated anti-human CD45 (Invitrogen), Alexa647-anti-human CD38 (Ab Serotec) and biotin-anti-human CD34 (Invitrogen) plus Alexa488-strepavidin (Invitrogen) in 2% fetal bovine serum/PBS-followed by live cell staining using the LIVE/DEAD® Fixable Near-IR Dead Cell Stain Kit (Invitrogen). Surface stained cells were then fixed in 70% ethanol overnight. […] Stained samples were analyzed using a FACSAria and FlowJo.

BCL2 and MCL1 = assay: Bone marrow BCL2, MCL1 and Ki67 IHC analysis of treated engrafted marrow; assay type: in vivo, RAG2−/−γc−/− mice; conditions: following sabutoclax treatment; data not shown
Procedure: For IHC, femurs were harvested from transplanted, treated animals, fixed and decalcified in Cal-Ex II (Fisher Scientific, Fair Lawn, N.J.) for 48 hrs, followed by standard tissue processing, paraffin-embedding and sectioning. Paraffin tissue sections were deparaffinized, rehydrated, and boiled in antigen retrieval solution (BD, California) (pH 6.0) for 10 min to retrieve antigen. Tissues were blocked with 5% bovine serum albumin (BSA) and 0.25% Triton X-100 in PBS for 30 min and incubated with primary antibody in PBS with 1% BSA at 4° C. for 16 h. Primary antibodies used were human CD45 (Abcam) and ki67 (BD). IHC staining was then carried out with LSAB System-HRP Kit (Dako Cytomation, Hamburg, Germany) according to manufacturer's protocol using methyl green (Sigma Aldrich) as counterstaining. […] All sections were mounted before examination using a Nikon Eclipse E600 microscope. […]
Bone specimens were fixed and mildly decalcified in Bouin's solution (Sigma-Aldrich, St. Louis, Mo.) for 8 h at room temperature, then postfixed in zinc-containing buffered formalin (Z-Fix; Anatech Ltd., Battle Creek, Mich.) for 3 days at 4° C., and embedded in paraffin. […] The Spectrum Analysis algorithm package and ImageScope analysis software (version 9; Aperio Technologies, Inc.) were applied to quantify IHC stainings.

[2] = High dose treatment (sabutoclax 2.5 mg/kg, dasatinib 50 mg/kg)
[3] = Low dose treatment (sabutoclax 1.25 mg/kg, dasatinib 25 mg/kg)

| SMILES | Mean (SEM) engraftment of CD34+CD38+ cells, Blood [1, 2] | Mean (SEM) engraftment of CD34+CD38+ cells, Marrow [1, 2] | Mean (SEM) engraftment of CD34+CD38+ cells, Spleen [1, 2] | Mean (SEM) engraftment of CD34+CD38+ cells, Blood [1, 3] | Mean (SEM) engraftment of CD34+CD38+ cells, Marrow [1, 3] | Mean (SEM) engraftment of CD34+CD38+ cells, Spleen [1, 3] | effect on marrow LSC engraftment compared to vehicle treated controls [1] | 2° TP - Median survival (BC LSC; High dose treatment) [days] | 2° TP - Median survival (BC LSC; Low dose treatment) [days] | LSC engraftment in all hematopoietic tissues including bone marrow ([1]; 5 mg/kg, FIG. 5b) | TUNEL+ apoptotic cells in engrafted marrow (BC LSC-engrafted marrow) | G2/S cells in engrafted marrow (marrow-engrafted BC LSC) | BCL2 and MCL1 immunopositive cells in BC LSC-engrafted marrow (BCL2 and MCL1) |
| --- | --- | --- | --- | --- | --- | --- | --- | --- | --- | --- | --- | --- | --- |
| Cc1nc(Nc2ncc(C(=O)Nc3c(C)cccc3Cl)s2)cc(N2CCN(CCO)CC2)n1 [Dasatinib, dasatinib] | 3.1 (2.4) | 21.23 (2.4) | 0.2 (0.07) | 2.1 (0.9) | 28.8 (10.7) | 2.0 (0.8) | no significant effect | 43 | 79 | – | – | – | – |
| Cc1cc2c(C(=O)NC[C@H](C)c3ccccc3)c(O)c(O)cc2c(O)c1-c1c(C)cc2c(C(=O)NC[C@H](C)c3ccccc3)c(O)c(O)cc2c1O [Sabutoclax] | 24.5 (17.6) | 30.01 (23.2) | 5.1 (1.5) | 11.0 (3.8) | 34.2 (12.5) | 12 (2.7) | no significant effect | 45 | 74 | significantly reduced | increased | slight increase | reduced amount |
